# Measured values: US10927105B1 (Lundbeck La Jolla Research Center, Inc., priority 2017, dated 2021)
# Target: MAGL (Homo sapiens (Human), UniProt Q99685)
# Assay: In vitro competitive activity-based protein profiling (human prefrontal cortex membrane fractions, FP-Rh probe), MAGL band
# Conditions: read-out: MAGL IC50 (μM) (human); human prefrontal cortex membrane fractions
# Description: (§1) Biological Evaluation In Vitro Competitive Activity-Based Protein Profiling.
# (§2) Proteomes (mouse brain membrane fraction for mouse assays; human prefrontal cortex membrane fractions for human assays) (50 mL, 1.0 mg/mL total protein concentration) were preincubated with varying concentrations of inhibitors at 37° C. After 30 min, FP-Rh (1.0 mL, 50 mM in DMSO) was added and the mixture was incubated for another 30 min at 37° C. Reactions were quenched with SDS loading buffer (15 μL-4×) and run on SDS-PAGE.
# Sequence of MAGL (Q99685 whole entry): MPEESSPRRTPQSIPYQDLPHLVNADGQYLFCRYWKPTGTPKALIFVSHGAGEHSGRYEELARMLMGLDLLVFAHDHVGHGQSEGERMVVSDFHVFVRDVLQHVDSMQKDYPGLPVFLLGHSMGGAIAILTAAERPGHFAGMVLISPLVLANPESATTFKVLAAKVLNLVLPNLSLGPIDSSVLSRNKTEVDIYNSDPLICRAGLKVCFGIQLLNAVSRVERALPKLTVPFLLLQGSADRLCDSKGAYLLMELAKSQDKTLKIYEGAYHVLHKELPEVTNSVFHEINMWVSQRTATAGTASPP
row,SMILES,IC50 [µM]
1,"NC(=O)c1ccn(C(=O)N2CC3CN(Cc4ccc(N5CCOCC5)cc4C(F)(F)F)CC3C2)n1 (stereo not shown) [Example 17, 1-(5-(4-Morpholino-2-(trifluoromethyl)benzyl)octahydropyrrolo[3,4-c]pyrrole-2-carbonyl)-1H-pyrazole-3-carboxamide]",< 0.1
2,"O=C(O)c1ccn(C(=O)N2C[C@H]3C[C@H](OCc4ccc(Oc5ccc(Cl)cc5)cc4)C[C@H]3C2)n1 [Example 55, 1-(trans-5-((4-(4-chlorophenoxy)-benzyl)oxy)-octahydrocyclopenta-[c]pyrrole-2-carbonyl)-1H-pyrazole-3-carboxylic acid]",< 0.1
3,"NC(=O)c1ccn(C(=O)N2CCC3(CCN(Cc4cc(Cl)ccc4C(F)(F)F)C3)CC2)n1 [Example 99, 1-(2-(5-chloro-2-(trifluoromethyl)-benzyl)-2,8-diazaspiro[4.5]-decane-8-carbonyl)-1H-pyrazole-3-carboxamide]",< 0.1
4,"O=C(O)c1ccn(C(=O)N2C[C@H]3C[C@H](Oc4cccc(-c5ccccc5)c4)C[C@H]3C2)n1 [Example 125, 1-(trans-5-([1,1′-biphenyl]-3-yloxy)-octahydrocyclopenta-[c]pyrrole-2-carbonyl)-1H-pyrazole-3-carboxylic acid]",< 0.1
5,"O=C(O)c1ccn(C(=O)N2CCC3(CCCN3Cc3ccc(C(F)(F)F)cc3N3CC4CCC(C3)O4)CC2)n1 [Example 416, 1-(1-(2-(8-oxa-3-azabicyclo[3.2.1]-octan-3-yl)-4-(trifluoromethyl)-benzyl)-1,8-diazaspiro[4.5]-decane-8-carbonyl)-1H-pyrazole-3-carboxylic acid]",< 0.1
6,"CNC(=O)c1ccn(C(=O)N2CC3CN(Cc4ccc(Cl)cc4)CC3C2)n1 (stereo not shown) [Example 424, 1-(5-(4-chlorobenzyl)-octahydropyrrolo-[3,4-c]pyrrole-2-carbonyl)-N-methyl-1H-pyrazole-3-carboxamide]",< 0.1
7,"NC(=O)c1ccn(C(=O)N2CCC3(CCN(Cc4cc(Cl)ccc4Cl)C3)C2)n1 (stereo not shown) [Example 426, 1-(7-(2,5-dichlorobenzyl)-2,7-diazaspiro[4.4-]-nonane-2-carbonyl)-1H-pyrazole-3-carboxamide]",< 0.1
8,"CNC(=O)c1ccn(C(=O)N2CCC3(CCN(Cc4cc(Cl)ccc4Cl)C3)C2)n1 (stereo not shown) [Example 428, 1-(7-(2,5-dichlorobenzyl)-2,7-diazaspiro[4.4]-nonane-2-carbonyl)-N-methyl-1H-pyrazole-3-carboxamide]",< 0.1
9,"NC(=O)c1ccn(C(=O)N2CCC3(CCN(Cc4cccc(C(F)(F)F)c4)C3)C2)n1 (stereo not shown) [Example 429, 1-(7-(3-(trifluoromethyl)-benzyl)-2,7-diazaspiro[4.4]-nonane-2-carbonyl)-1H-pyrazole-3-carboxamide]",< 0.1
10,"CNC(=O)c1ccn(C(=O)N2CC3CN(Cc4cc(Cl)ccc4Cl)CC3C2)n1 (stereo not shown) [Example 430, 1-(5-(2,5-dichlorobenzyl)-octahydropyrrolo-[3,4-c]pyrrole-2-carbonyl)-N-methyl-1H-pyrazole-3-carboxamide]",< 0.1
11,"CNC(=O)c1ccn(C(=O)N2CC3CN(Cc4cccc(C(F)(F)F)c4)CC3C2)n1 (stereo not shown) [Example 432, N-methyl-1-(5-(3-(trifluoromethyl)-benzyl)-octahydropyrrolo-[3,4-c]pyrrole-2-carbonyl)-1H-pyrazole-3-carboxamide]",< 0.1

# Other lines, results leading:
row,IC50 [µM],SMILES
1,< 0.1,"NC(=O)c1ccn(C(=O)N2CCC3(CCN(Cc4cc(Cl)cc(C(F)(F)F)c4)C3)C2)n1 (stereo not shown) [Example 433, 1-(7-(3-chloro-5-(trifluoromethyl)-benzyl)-2,7-diazaspiro[4.4]-nonane-2-carbonyl)-1H-pyrazole-3-carboxamide]"
2,< 0.1,"CNC(=O)c1ccn(C(=O)N2C[C@H]3C[C@@H](N(C)Cc4ccccc4C(F)(F)F)C[C@H]3C2)n1 [Example 434, N-methyl-1-(cis-5-(methyl(2-(trifluoromethyl)-benzyl)amino)-octahydrocyclopenta-[c]pyrrole-2-carbonyl)-1H-pyrazole-3-carboxamide]"
3,< 0.1,"CNC(=O)c1ccn(C(=O)N2CCC3(CCN(Cc4cc(Cl)cc(C(F)(F)F)c4)C3)C2)n1 (stereo not shown) [Example 435, 1-(7-(3-chloro-5-(trifluoromethyl)-benzyl)-2,7-diazaspiro[4.4]-nonane-2-carbonyl)-N-methyl-1H-pyrazole-3-carboxamide]"
4,< 0.1,"NC(=O)c1ccn(C(=O)N2CCC3(CCN(Cc4ccc(N5CCOCC5)cc4C(F)(F)F)C3)C2)n1 (stereo not shown) [Example 436, 1-(7-(4-morpholino-2-(trifluoromethyl)-benzyl)-2,7-diazaspiro-[4.4]nonane-2-carbonyl)-1H-pyrazole-3-carboxamide]"
5,< 0.1,"CNC(=O)c1ccn(C(=O)N2CC3CN(Cc4cc(Cl)cc(C(F)(F)F)c4)CC3C2)n1 (stereo not shown) [Example 437, 1-(5-(3-chloro-5-(trifluoromethyl)-benzyl)-octahydropyrrolo-[3,4-c]pyrrole-2-carbonyl)-N-methyl-1H-pyrazole-3-carboxamide]"
6,< 0.1,"CNC(=O)c1ccn(C(=O)N2C[C@H]3C[C@@H](N(C)Cc4ccc(C(F)(F)F)cc4)C[C@H]3C2)n1 [Example 439, N-methyl-1-(cis-5-(methyl(4-(trifluoromethyl)-benzyl)amino)-octahydrocyclopenta-[c]pyrrole-2-carbonyl)-1H-pyrazole-3-carboxamide]"
7,< 0.1,"CNC(=O)c1ccn(C(=O)N2CC3CN(Cc4ccc(N5CCOCC5)cc4C(F)(F)F)CC3C2)n1 (stereo not shown) [Example 440, N-methyl-1-(5-(4-morpholino-2-(trifluoromethyl)-benzyl)-octahydropyrrolo-[3,4-c]pyrrole-2-carbonyl)-1H-pyrazole-3-carboxamide]"
8,< 0.1,"Cc1cn(C(=O)N2CCN(Cc3cccc(Oc4ccc(Cl)cc4)c3)C[C@@H]2C)nc1C(=O)O [Example 442, (S)-1-(4-(3-(4-chlorophenoxy)-benzyl)-2-methylpiperazine-1-carbonyl)-4-methyl-1H-pyrazole-3-carboxylic acid]"
9,< 0.1,"O=C(O)c1nn(C(=O)N2CCN(Cc3ccc(C(F)(F)F)cc3N3CCCC3)CC2)cc1Cl [Example 443, 4-chloro-1-(4-(2-(pyrrolidin-1-yl)-4-(trifluoromethyl)-benzyl)-piperazine-1-carbonyl)-1H-pyrazole-3-carboxylic acid]"
10,< 0.1,CC(C)COc1cccc(O[C@H]2C[C@@H]3CN(C(=O)n4ccc(C(=O)O)n4)C[C@@H]3C2)c1Cl [Example 448]
11,< 0.1,"C[C@H]1CN(Cc2cccc(OCC(C)(C)O)c2Cl)CCN1C(=O)n1ccc(C(N)=O)n1 [Example 450, (S)-1-(4-(2-chloro-3-(2-hydroxy-2-methylpropoxy)-benzyl)-2-methylpiperazine-1-carbonyl)-1H-pyrazole-3-carboxamide]"
12,< 0.1,"CC(C)(O)COc1cccc(O[C@H]2C[C@@H]3CN(C(=O)n4ccc(C(=O)O)n4)C[C@@H]3C2)c1Cl [Example 451, 1-(trans-5-(2-chloro-3-(2-hydroxy-2-methylpropoxy)-phenoxy)-octahydrocyclopenta-[c]pyrrole-2-carbonyl)-1H-pyrazole-3-carboxylic acid]"
13,< 0.1,"O=C(O)c1ccn(C(=O)N2CCN(Cc3cccc(C(F)(F)F)c3N3CCOCC3)CC2)n1 [Example 453, 1-(4-(2-morpholino-3-(trifluoromethyl)-benzyl)-piperazine-1-carbonyl)-1H-pyrazole-3-carboxylic acid]"

# Target: FAAH (Homo sapiens (Human), UniProt O00519)
# Assay: In vitro competitive activity-based protein profiling (human prefrontal cortex membrane fractions, FP-Rh probe), FAAH band
# Conditions: read-out: FAAH IC50 (μM) (human); human prefrontal cortex membrane fractions
# Description: as §1, §2
# Sequence of FAAH (O00519 whole entry): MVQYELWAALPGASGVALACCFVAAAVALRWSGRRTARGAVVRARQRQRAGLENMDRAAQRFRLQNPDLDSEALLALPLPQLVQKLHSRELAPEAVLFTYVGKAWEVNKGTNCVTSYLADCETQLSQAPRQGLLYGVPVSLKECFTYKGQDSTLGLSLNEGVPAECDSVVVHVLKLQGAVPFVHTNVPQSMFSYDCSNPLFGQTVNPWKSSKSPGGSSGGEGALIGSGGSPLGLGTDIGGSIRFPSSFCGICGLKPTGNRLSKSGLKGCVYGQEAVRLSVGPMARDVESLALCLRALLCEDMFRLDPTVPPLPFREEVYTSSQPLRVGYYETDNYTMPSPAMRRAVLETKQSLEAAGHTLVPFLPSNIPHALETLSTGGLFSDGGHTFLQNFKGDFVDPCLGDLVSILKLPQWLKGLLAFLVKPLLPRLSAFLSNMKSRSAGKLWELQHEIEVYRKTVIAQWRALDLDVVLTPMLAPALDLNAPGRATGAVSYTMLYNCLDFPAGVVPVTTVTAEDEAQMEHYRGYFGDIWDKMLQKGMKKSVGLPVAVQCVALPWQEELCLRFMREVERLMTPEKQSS
row,IC50 [µM],SMILES
1,< 0.1,"NC(=O)c1ccn(C(=O)N2CC3CN(Cc4ccc(N5CCOCC5)cc4C(F)(F)F)CC3C2)n1 (stereo not shown) [Example 17, 1-(5-(4-Morpholino-2-(trifluoromethyl)benzyl)octahydropyrrolo[3,4-c]pyrrole-2-carbonyl)-1H-pyrazole-3-carboxamide]"
2,< 0.1,"O=C(O)c1ccn(C(=O)N2C[C@H]3C[C@H](OCc4ccc(Oc5ccc(Cl)cc5)cc4)C[C@H]3C2)n1 [Example 55, 1-(trans-5-((4-(4-chlorophenoxy)-benzyl)oxy)-octahydrocyclopenta-[c]pyrrole-2-carbonyl)-1H-pyrazole-3-carboxylic acid]"
3,< 0.1,"NC(=O)c1ccn(C(=O)N2CCC3(CCN(Cc4cc(Cl)ccc4C(F)(F)F)C3)CC2)n1 [Example 99, 1-(2-(5-chloro-2-(trifluoromethyl)-benzyl)-2,8-diazaspiro[4.5]-decane-8-carbonyl)-1H-pyrazole-3-carboxamide]"
4,< 0.1,"O=C(O)c1ccn(C(=O)N2C[C@H]3C[C@H](Oc4cccc(-c5ccccc5)c4)C[C@H]3C2)n1 [Example 125, 1-(trans-5-([1,1′-biphenyl]-3-yloxy)-octahydrocyclopenta-[c]pyrrole-2-carbonyl)-1H-pyrazole-3-carboxylic acid]"
